For series [1] the following is noted: in DMSO and MeCN at 0.01 M, 0.05 M, 0.1 M, 0.2 M, and 0.5 M; 25 °C.
Method: The viscosity measurements were collected using the Cannon Instruments Semi-Micro Viscometer. Concentrations of 0.01 M– 0.55 M were used when collecting the viscosity data at ambient temperature (25 °C). The U-tube style viscometer allowed for the collection of kinematic viscosity in centiStokes (cSt) which was then converted to dynamic viscosity in centiPoise (cP) using the electrolyte density.
A short description of series [2]: Experimental solubility of [Nxxxx]y[VBH] active materials (maximum concentration by UV-Vis spectroscopy). In kind it is physicochemical. The settings on record: anhydrous, organic solvent or mixture, read-out: Experimental solubility (maximum concentration of VBH in the electrolyte). The text has this: To investigate the solubilities of VBH-based active materials, we synthesized the alkylammonium [VBH] compounds in their reduced (+4) and oxidized (+5) states ([Nxxxx]2[V(+4)BH] and [Nxxxx][V(+5)BH], where x = 1 (methyl), 2 (ethyl), 3 (n-propyl), 4 (n-butyl)) and measured their solubilities in tetrahydrofuran (THF), acetonitrile (MeCN), dimethyl sulfoxide (DMSO), and propylene carbonate (PC). […] This led us to explicitly explore the interplay between competing trends in solvation energy and lattice enthalpy, which was implied by our previous work,[5] using a combined computational and synthetic strategy.
UV-Vis spectra were collected using the Evolution 220 UV-visible spectrophotometer with a quartz cuvette of 1 cm path length. The molar extinction coefficients for oxidized and reduced species in all solvents except for DMSO were used as determined in our previous study.[5] Molar extinction coefficients for oxidized species in DMSO were determined from a calibration curve. Infrared spectra were collected on a Thermo Scientific Nicolet iS5 equipped with iD7ATR module and a diamond crystal. ^1H- and ^13C-NMRs were performed on Bruker AVANCE III HD 400 MHz High-Performance Digital NMR spectrometer operating at 400 MHz for ^1H NMR and 101 MHz for ^13C NMR. Data acquisition was performed on IconNMR 5.0.3, and spectra were processed in TopSpin 3.5 and Mnova. High-Resolution Mass Spectrometry (HRMS) was performed on a Waters ACQUITY UPLC Xevo QTOF high resolution mass spectrometer using electrospray ionization. X-ray crystallographic experiments were performed on a Bruker D8 Venture X-instrument, using Mo Kα radiation at 200 K. Data were corrected for absorption using SADABS. The structures were solved by direct methods. All non-hydrogen atoms were refined anisotropically by full matrix least-squares on F^2 and all hydrogen atoms except those on water were placed in calculated positions with appropriate riding parameters. Further refinement and molecular graphics were obtained using Bruker Suite of structural programs,[55] OLEX2,[56] and Mercury.[57]
Hydroxylamine hydrochloride (Alfa Aesar), sodium hydroxide (Acros organics), chloroacetic acid (BTC), zinc acetate dihydrate (Acros Organics), calcium chloride (VWR), tetramethylammonium fluoride tetrahydrate (Matrix Scientific), tetraethylammonium fluoride (BTC), triethylamine (Acros Organics), n-butylbromide (Alfa Aesar), n-propylbromide (BTC), ferrocenium hexafluorophosphate (Sigma Aldrich), and vanadyl (iv) acetylacetonate (BTC) were purchased from commercial sources and used as received. Information on the characterization of new materials and those that were reported previously, and were used for solubility studies herein, are provided below. Solvent used in solubility measurement were of anhydrous grade and purchased from Sigma Aldrich.

[3] abbreviates: acetonitrile (MeCN), MeCN (ϵ = 37), +4 state, [Nxxxx]2[VBH].
[4] abbreviates: acetonitrile (MeCN), MeCN (ϵ = 37), +5 state, [Nxxxx][VBH].
Where [5] appears, read: dimethyl sulfoxide (DMSO), DMSO (ϵ = 47), +4 state, [Nxxxx]2[VBH].
The mark [6] stands for this setting: dimethyl sulfoxide (DMSO), DMSO (ϵ = 47), +5 state, [Nxxxx][VBH].
[7] abbreviates: propylene carbonate (PC), PC (ϵ = 66), +4 state, [Nxxxx]2[VBH].
[8] abbreviates: propylene carbonate (PC), PC (ϵ = 66), +5 state, [Nxxxx][VBH].

From article PMC8672735, “Computational and experimental investigation of the effect of cation structure on the solubility of anionic flow battery active-materials” (Chemical Science, 2021) come the findings set out here.

Where two headings read alike, the source gives them in different places.

`CCCC[N+](CCCC)(CCCC)CCCC` [[N4444]2[VBH]]: the viscosity result in series [1] is on record as “generally increases with solution concentration”.

Consider `CCC[N+](C)(C)C` [compound 1113], for which the solubility was 24 mM in series [2] (setting [3]); 8 mM in series [2] (setting [4]); 246 mM in series [2] (setting [5]); 252 mM in series [2] (setting [6]); 108 mM in series [2] (setting [7]); 40 mM in series [2] (setting [8]).

With `CCCC[N+](C)(C)C` [compound 1114], the solubility was 76 mM in series [2] (setting [3]); 7 mM in series [2] (setting [4]); 624 mM in series [2] (setting [5]); 225 mM in series [2] (setting [6]); 377 mM in series [2] (setting [7]); 33 mM in series [2] (setting [8]).

As to `CC[N+](CC)(CC)CC` [compound 2222], the solubility was determined as 64 mM in series [2] (setting [4]), 804 mM in series [2] (setting [6]) and 215 mM in series [2] (setting [8]).
